After the bases stand the sugars from the 5' end (letter, count) and the backbone: PS all phosphorothioate, else s phosphorothioate and o phosphodiester by linkage. Methylation of C is not given here. e = 2'-O-(2-methoxyethyl) (MOE); k = constrained ethyl (cEt); d = 2'-deoxy (DNA); m = 2'-O-methyl
Molecular target: HSD17B13
Conditions: ASO, HepaRG

Sequence | target mRNA inhibition (1 µM) | further results
ACATUGCAGTTATTAG (sugars k3 d1 m1 d8 k3, PS) | 26% | –
TCTTAAGATACCCAGG (sugars k3 d9 k3 e1, PS) | 48% | –
CCCGAATTATTTCTTG (sugars k3 d10 k3, PS) | 34% | –
CGTTAGGTTTCCAAAT (sugars k3 d10 k3, PS) | 0% | –
GGGACCAATATAATCC (sugars k3 d10 k3, PS) | 31% | –
CGCCTAGTTTTCGGCA (sugars k3 d10 k3, PS) | 23% | –
GTTTCAAAAAGGCCCA (sugars k3 d10 k3, PS) | 39% | –
TACCAATATGGGATGA (sugars k3 d10 k3, PS) | 1% | –
GTAATTTTCAGATCCC (sugars k3 d10 k3, PS) | 82% | target mRNA inhibition (0.02 µM): 24%; target mRNA inhibition (0.078 µM): 43%; target mRNA inhibition (0.313 µM): 69%; target mRNA inhibition (1.25 µM): 88%; target mRNA inhibition (5 µM): 88%
TGCTACTCTAGGAGAT (sugars k3 d10 k3, PS) | 60% | –
ATTAATGCCACCCTAC (sugars k3 d10 k3, PS) | 6% | –
GATTAATCTTGATGCT (sugars k3 d10 k3, PS) | 26% | –
CCGCGCTTATTAATAT (sugars k3 d10 k3, PS) | 21% | –
GTCAGACCTCTGTGAA (sugars k3 d10 k3, PS) | 34% | –
ATGTGAAGAGCTGGTA (sugars k3 d10 k3, PS) | 42% | –
GGTCACCTTTCATAAT (sugars kkdddddddddkekek, PS) | 52% | –
GCACCGTTTTGGGCTA (sugars k3 d9 k3 e1, PS) | 45% | –
TAGTGTAAGCTGAGAG (sugars k3 d9 k3 e1, PS) | 82% | target mRNA inhibition (0.02 µM): 6%; target mRNA inhibition (0.078 µM): 13%; target mRNA inhibition (0.313 µM): 52%; target mRNA inhibition (1.25 µM): 69%; target mRNA inhibition (5 µM): 79%

Sequence | target mRNA inhibition (1 µM) | further results
CACCATGACAGCTTCA (sugars k3 d10 k3, PS) | 65% | –
CTTGATGATTCTGACT (sugars k3 d10 k3, PS) | 57% | –
CAAACATGGATGTTAG (sugars k3 d10 k3, PS) | 49% | –
ATCTATCAGACTTCTT (sugars kkdddddddddkekek, PS) | 37% | –
GTTTATGTAAGCACAG (sugars k3 d10 k3, PS) | 67% | –
TAACGGTGATCAAATG (sugars k3 d10 k3, PS) | 17% | –
TGATCTTAAGGATCAT (sugars k3 d10 k3, PS) | 0% | –
CCTAAGTTATTATCCC (sugars k3 d10 k3, PS) | 18% | –
GCTTUTGTCCACCTTT (sugars k3 d1 m1 d8 k3, PS) | 75% | target mRNA inhibition (0.02 µM): 0%; target mRNA inhibition (0.078 µM): 0%; target mRNA inhibition (0.313 µM): 13%; target mRNA inhibition (1.25 µM): 70%; target mRNA inhibition (5 µM): 89%
CTTTGAGACTCTTGTT (sugars k3 d10 k3, PS) | 61% | –
ACTTGATCTCTTAGCT (sugars k3 d1 m1 d8 k3, PS) | 39% | –
TTGATATTCTGTGGCA (sugars k3 d10 k3, PS) | 87% | target mRNA inhibition (0.02 µM): 0%; target mRNA inhibition (0.078 µM): 17%; target mRNA inhibition (0.313 µM): 58%; target mRNA inhibition (1.25 µM): 80%; target mRNA inhibition (5 µM): 94%
ATGTGAAGAGCTGGTA (sugars k3 d1 m1 d8 k3, PS) | 26% | –
CTTATGTAATAGCCAG (sugars k3 d10 k3, PS) | 74% | –
GTGTTCTTGTTGATAT (sugars k3 d10 k3, PS) | 81% | target mRNA inhibition (0.02 µM): 13%; target mRNA inhibition (0.078 µM): 25%; target mRNA inhibition (0.313 µM): 59%; target mRNA inhibition (1.25 µM): 80%; target mRNA inhibition (5 µM): 93%
GTTGATATTCTGTGGC (sugars k3 d1 m1 d8 k3, PS) | 68% | –
TCTGTATAGCTGCATT (sugars k3 d10 k3, PS) | 47% | –

Reference: the OligoGym collection
